This note sets out measurements from paper PMC9230431, “Application of In Silico Filtering and Isothermal Titration Calorimetry for the Discovery of Small Molecule Inhibitors of MDM2” (Pharmaceuticals, 2022).

A word on the Kd: it is the concentration at which binding is half-saturated. Low readings indicate a tighter complex, high ones a looser complex.

One assay deals with T1, MDM2 (Homo sapiens, UniProt Q00987).
T1 construct: His tag-GB1-TEV site fusion expressed in E. coli BL21; His-GB1 removed by TEV cleavage
T1 sequence (Q00987 5-125): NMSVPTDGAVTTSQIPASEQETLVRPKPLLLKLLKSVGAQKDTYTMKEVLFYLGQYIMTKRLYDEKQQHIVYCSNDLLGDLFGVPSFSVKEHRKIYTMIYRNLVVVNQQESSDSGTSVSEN
Briefly: ITC, MDM2 titrated into compound, single-site fit.
Details: not given
The assay is classed as binding. From the text:
ITC, MDM2 titrated into compound, single-site fit on MDM2
(In general: ITC needs no label: the signal is the heat of the interaction.)
With `Cc1cccc(C)c1NC(=O)C(c1ccc(Cl)cc1)N1C(=O)CC1c1cccc(C(F)(F)F)c1` (stereo not shown) [M1-7], binding was put at a Kd of 33500 nM.
For the molecule `Cc1cccc(C)c1NC(=O)C(c1ccc(Cl)cc1)N1C(=O)CC1c1ccsc1` (stereo not shown) [M1-10], the Kd amounted to 19500 nM.
As for `Cc1ccc(C2CC(=O)N2C(C(=O)Nc2c(C)cccc2C)c2ccc(Cl)cc2)o1` (stereo not shown) [M1-11], the Kd came out at 13100 nM.
For the molecule `Cc1cccc(C)c1NC(=O)C(c1ccc(Cl)cc1)N1C(=O)CC1c1ccc(OC(C)C)cc1` (stereo not shown) [M1], the Kd worked out at 2850 nM. Compared with the last molecule, the Kd is about 4.6-fold lower.
In turn, `O=S(=O)(NC(c1c[nH]c2cccc(F)c12)C(Cl)(Cl)Cl)c1ccc(Cl)cc1` (stereo not shown) [M2-7] displayed a Kd of 979 nM.
`O=S(=O)(NC(c1c[nH]c2ccc(F)cc12)C(Cl)(Cl)Cl)c1ccc(Cl)cc1` (stereo not shown) [M2-8] returned a Kd of 1580 nM. This Kd is about 1.6-fold higher than that of the molecule before.
Same read-out and setting: the figure for `O=S(=O)(NC(c1c[nH]c2cccc(Cl)c12)C(Cl)(Cl)Cl)c1ccc(Cl)cc1` (stereo not shown) [M2-10] is 578 nM; for `O=S(=O)(NC(c1c[nH]c2cc(Cl)ccc12)C(Cl)(Cl)Cl)c1ccc(Cl)cc1` (stereo not shown) [M2-11] it is 704 nM.
On the same count and under the same terms, the figure for `Cc1ccc2c(C(NS(=O)(=O)c3ccc(Cl)cc3)C(Cl)(Cl)Cl)c[nH]c2c1` (stereo not shown) [M2-12] is 844 nM; for `O=S(=O)(NC(c1c[nH]c2cc(F)cc(F)c12)C(Cl)(Cl)Cl)c1ccc(Cl)cc1` (stereo not shown) [M2-13] it is 489 nM; for `O=S(=O)(NC(c1c[nH]c2cc(F)ccc12)C(Cl)(Cl)Cl)c1ccc(Cl)cc1` (stereo not shown) [M2-14] it is 1220 nM.
For the molecule `COc1cc(Cl)ccc1S(=O)(=O)NC(c1c[nH]c2ccccc12)C(Cl)(Cl)Cl` (stereo not shown) [M2-15], the Kd stood at 3160 nM. This Kd lies about 2.6-fold higher than the previous one.
For `Cc1ccc(S(=O)(=O)NC(c2c[nH]c3cc(F)ccc23)C(Cl)(Cl)Cl)cc1` (stereo not shown) [M2-18], the affinity, expressed as Kd, was 1330 nM.
As to `O=S(=O)(NC(c1c[nH]c2ccccc12)C(Cl)(Cl)Cl)c1ccc(Cl)cc1` (stereo not shown) [M2], the Kd is 2080 nM.
With `COc1ccccc1-c1nnc(SC2CCCCC2=O)n1-c1ccc(Cl)cc1` (stereo not shown) [M3], the affinity, expressed as Kd, was 16600 nM.

The assay is the same for the next values; noted with them: 50 mM sodium phosphate pH 6.8, 150 mM NaCl, 5% DMSO, 1 mM TCEP.
In turn, `Cc1[nH]c2ccccc2c1C(NS(=O)(=O)c1ccc(Cl)cc1)C(Cl)(Cl)Cl` (stereo not shown) [M2-3] had a Kd of 49700 nM.
